# Experimental data taken from patent publication US20250034151A1, “WEE1 INHIBITOR, PREPARATION THEREFOR, AND USE THEREOF” (JIANGSU TASLY DIYI PHARMACEUTICAL CO., LTD., priority 2022, published 2025).
# Read-outs that look alike come from different tables or passages of the source.
# Key:
# Wee1 protein = target: T1, Wee1 protein (Homo sapiens, UniProt P30291); test: Binding of compound to Wee1 protein and Tracer 178 by TR-FRET (Wee1 kinase inhibitory activity); conditions: 15 nM WEE1, 50 nM Tracer 178, read-out: IC50 (inhibitory activity against Wee1 kinase)
# T1 construct: purchased Thermo Fisher PR7373A
# Experimental: First, solutions of the compounds in different concentration gradients were prepared. The compounds were dissolved in DMSO and the compounds were diluted 4 folds with a total of 10 dose points and 2 parallel replicates for each concentration.
# The IC50 for inhibition of enzyme activity by the compounds was then calculated using GraphPad Prism 6 and fitted with a log (inhibitor) vs. response-Variable slope mode. The fitting equation was: Y=Bottom+(Top−Bottom)/(1+10^((Log IC50−X)*HillSlope)), wherein Y represents the percentage of residual enzyme activity known and X represents the known concentration of compound after the logarithm.
# H1299 cells = test: Anti-proliferative effect on H1299 cells by Cell Titer-Glo; format: cell-based; conditions: 3 days
# Experimental: (§1) Test Example 2: Evaluation of Cell Proliferation Inhibitory Activity
# 1. Evaluation of the Anti-Proliferative Effect of Compounds on H1299 Cells by the Cell Titer-Glo Method
# (§2) Compound solutions of different concentration gradients were prepared. […] The cell growth group without compound was used as a positive control (maximum signal control) and the medium was used as a negative control (minimum signal control), while ensuring that the final level of DMSO in each reaction well was 0.2%. After removing the medium from the 384-well plate, 25 ul of the configured compound at different concentrations was transferred into the well plate and the compound and cells were incubated in the cell incubator at 37° C. with 5% CO2 for 3 days.
# (§3) The 384-well plates were removed from the cell incubator and allowed to equilibrate for 1h to room temperature. 25 ul of Cell Titer-Glo assay was added to each well, lysed on a shaker for 2 min and then read out (Luminescence) using a BMG PHERAStar after 10 min incubation. Calculate the inhibition rate from the luminescence signal: first calculate the average of the positive control (maximum signal control) and the negative control (minimum signal control).
# (§4) was used to calculate the rate of inhibition of the cells by different concentrations of the compounds. The IC50 of the compound on cell activity inhibition was calculated by fitting a log(inhibitor) vs. response-Variable slope model to GraphPad Prism 6. The fitted equation was: Y=Bottom+(Top−Bottom)/(1+10^((Log IC50−X)*HillSlope)), where Y represents the rate of inhibition and X represents the concentration of the known compound after Log.
# (§5) The results of the in vitro anti-cell proliferation assays of H1299 and MIA Paca-2 for the example compounds according to the method described above are shown in Table 2, wherein the IC50 of each compound was determined and classified according to the description as follows: […]
# [1] = Liver microsomes in vitro stability (mouse); format: in vitro ADME; conditions: read-out: T1/2/min
# Experimental: 1. Preparation of Working Solution:
# Microsomes were taken out from the −80° C. refrigerator, rapidly melted in a 37° C. water bath and placed on ice until ready to use. The test article was diluted with DMSO to prepare a 10 mM stock solution, and then diluted with acetonitrile to a 0.5 mM secondary stock solution. […] NADPH was diluted with Buffer C to a working solution of 6 mM for the starter solution. An acetonitrile solution containing an internal standard was prepared as the precipitant, and Verapamil-HCl was chosen as the internal standard at a concentration of 4 ng/ml.
# 2. Experimental Procedure:
# A round-bottom well plate was taken, noted as the reaction plate, and the prepared working solution for each compound was dispensed into the well plate according to the number of replicates and time points (0 h samples were also added to the reaction plate), 30 μL/well; the plate was incubated at 37° C. for 10 min. A separate plate with pointed bottom wells, noted as a precipitation plate, was added with 135 μL precipitant per well; 0 h samples were transferred to the plate after 10 min incubation and 15 μL of starter solution was added; the plate was placed on ice before centrifugation.
# The diluted starter solution was added in sufficient quantity to the dispensing plate to facilitate the multichannel pipette aspiration operation.
# The reaction was carried out on a warm incubation shaker and 15 μL of starter solution/sample is added to the plate using a multichannel pipette. The reaction was mixed with a slight shake to initiate the reaction, which was accurately timed and recorded using a timer. In general, samples with shorter reaction times are initiated late and vice versa early, allowing sufficient time for multiple plate manipulation to terminate the reaction. For example, as for the four experiments of 5, 15, 30, and 60 min, the 60 min experiment was started first, and the 5 min experiment was started later, so as to leave sufficient time for the 5 min group.
# After the reaction time had elapsed, all the solution in the plate was aspirated using the multichannel pipette and added to the precipitation plate to terminate the reaction at that point in time. After all reactions had been terminated, the plates were shaken for ten minutes on a plate shaker at 600 rpm to precipitate the protein. The plate was centrifuged at 4° C. for 15 minutes at maximum rpm. 80 μL of supernatant was taken, 320 μL of pure water was added and mixed for LC-MS analysis.
# MIA PaCa2 cells = test: Anti-proliferative effect on MIA PaCa2 cells by Cell Titer-Glo; format: cell-based; conditions: Homo sapiens, MIA PaCa-2, 72 h, 3 days, read-out: MIA PaCa 2 (IC50, inhibition of proliferation in vitro)
# Experimental: as §1
# 2. Evaluation of the Anti-Proliferative Effect of Compounds on MIA PaCa2 Cells by the Cell Titer-Glo Method
# as §2
# as §3, with “1 h” for “1h”
# as §4, with “Y=Bottom+(Top-Bottom)/(1+10^((Log” for “Y=Bottom+(Top−Bottom)/(1+10^((Log”, “wherein” for “where”
# as §5
# [2] = Homo sapiens, NCI-H1299, 72 h, read-out: H1299 (IC50, inhibition of proliferation in vitro)
# T1 sequence (P30291 whole entry): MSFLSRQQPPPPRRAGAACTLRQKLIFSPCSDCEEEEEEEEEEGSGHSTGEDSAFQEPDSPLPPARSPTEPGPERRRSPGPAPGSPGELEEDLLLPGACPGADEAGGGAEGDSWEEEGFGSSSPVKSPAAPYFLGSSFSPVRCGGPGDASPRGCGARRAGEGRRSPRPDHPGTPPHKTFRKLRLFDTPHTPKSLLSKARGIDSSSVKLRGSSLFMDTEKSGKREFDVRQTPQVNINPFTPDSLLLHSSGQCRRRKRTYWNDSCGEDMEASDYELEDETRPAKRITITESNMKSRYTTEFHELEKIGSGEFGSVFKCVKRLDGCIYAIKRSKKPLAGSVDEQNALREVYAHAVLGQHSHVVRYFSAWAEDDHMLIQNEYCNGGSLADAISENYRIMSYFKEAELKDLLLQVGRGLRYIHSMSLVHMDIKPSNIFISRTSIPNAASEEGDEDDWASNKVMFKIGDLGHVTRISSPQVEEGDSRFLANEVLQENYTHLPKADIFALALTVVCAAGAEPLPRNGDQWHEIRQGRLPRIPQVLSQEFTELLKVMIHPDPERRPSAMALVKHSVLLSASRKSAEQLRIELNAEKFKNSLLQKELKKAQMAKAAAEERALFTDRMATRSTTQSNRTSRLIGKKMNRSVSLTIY
Compound,IC50 (Wee1 protein),IC50 (H1299 cells; [2]),half-life at 1 µM [1],IC50 (MIA PaCa2 cells),"IC50 (H1299 cells; listed as Compound61, read-out: H1299 (IC50, inhibition of proliferation in vitro))"
C=CCn1c(=O)c2cnc(Nc3ccc(N4CCC(N(C)C5CN6CCC5CC6)CC4)cc3)nc2n1-c1cccc(N=S(C)(C)=O)n1 (stereo not shown) [Compound 8],5 to 10 nM,5000 to 10000 nM,> 120 min,,
C=CCn1c(=O)c2cnc(Nc3ccc(N4CCN(C5CN6CCC5CC6)CC4)cc3)nc2n1-c1cccc(N=S(C)(C)=O)n1 (stereo not shown) [Compound 11],5 to 10 nM,100 to 1000 nM,110 min,100 to 1000 nM,
C=CCn1c(=O)c2cnc(Nc3ccc4c(c3)CN(C3CCN(C)CC3)C4=O)nc2n1-c1cccc(N=S(C)(C)=O)n1 [Compound 15],5 to 10 nM,> 10000 nM,> 120 min,2000 to 5000 nM,
C=CCn1c(=O)c2cnc(Nc3ccc(N4CCC(N5CC6CC5CN6C)CC4)cc3)nc2n1-c1cccc(C(C)(C)O)n1 (stereo not shown) [Compound 18],5 to 10 nM,2000 to 5000 nM,> 120 min,100 to 1000 nM,
C=CCn1c(=O)c2cnc(Nc3ccc(N(C)[C@@H]4CN5CCC4CC5)cc3)nc2n1-c1cccc(C(C)(C)O)n1 [Compound 19],< 5 nM,> 10000 nM,48.1 min,> 10000 nM,
C=CCn1c(=O)c2cnc(Nc3ccc(N4CC5CC(CN(C)C5)C4)cc3)nc2n1-c1cccc(C(C)(C)O)n1 [Compound 23],10 to 100 nM,> 10000 nM,38.7 min,2000 to 5000 nM,
C=CCn1c(=O)c2cnc(Nc3ccc4c(c3)C(=O)N(C3CCN(C)CC3)C4)nc2n1-c1cccc(N=S(C)(C)=O)n1 [Compound 24],10 to 100 nM,5000 to 10000 nM,> 120 min,100 to 1000 nM,
C=CCn1c(=O)c2cnc(Nc3ccc(N4C5CCC4CN(C)C5)cc3)nc2n1-c1cccc(C(C)(C)O)n1 [Compound 25],5 to 10 nM,1000 to 2000 nM,14.1 min,1000 to 2000 nM,
C=CCn1c(=O)c2cnc(Nc3ccc(N4CC5CCC(C4)N5C)cc3)nc2n1-c1cccc(C(C)(C)O)n1 [Compound 28],5 to 10 nM,100 to 1000 nM,15 min,100 to 1000 nM,
C=CCn1c(=O)c2cnc(Nc3ccc(N4CC5CC(CN(CCF)C5)C4)cc3)nc2n1-c1cccc(C(C)(C)O)n1 [Compound 37],10 to 100 nM,2000 to 5000 nM,21.7 min,100 to 1000 nM,
C=CCn1c(=O)c2cnc(Nc3ccc(N4C[C@H]5C[C@@H](C4)N5C)cc3)nc2n1-c1cccc(N=S(C)(C)=O)n1 [Compound 39],< 5 nM,100 to 1000 nM,> 120 min,≤ 100 nM,
C=CCn1c(=O)c2cnc(Nc3ccc(N4CC5CC(C4)N5C)cc3)nc2n1-c1ccc2oc(=O)n(CC)c2c1 [Compound 54],5 to 10 nM,2000 to 5000 nM,77 min,2000 to 5000 nM,
C=CCn1c(=O)c2cnc(Nc3ccc(N4CC5CC(C4)N5C)cc3)nc2n1-c1ccc2c(c1)C(C)(O)CO2 (stereo not shown) [Compound 57],10 to 100 nM,> 10000 nM,43.9 min,> 10000 nM,
C=CCn1c(=O)c2cnc(Nc3ccc(N4CC5CC(C4)N5C)cc3)nc2n1-c1ccc2cnn(CC)c2n1 [Compound 61],< 5 nM,,> 120 min,,2000 to 5000 nM
C=CCn1c(=O)c2cnc(Nc3ccc(C(=O)N(C)C4CN5CCC4CC5)cc3)nc2n1-c1cccc(C(C)(C)O)n1 (stereo not shown) [Compound 62],5 to 10 nM,1000 to 2000 nM,25.1 min,100 to 1000 nM,
C=CCN1C2CC1CN(c1ccc(Nc3ncc4c(=O)n(CC=C)n(-c5cccc(C(C)(C)O)n5)c4n3)cc1)C2 [Compound 64],10 to 100 nM,100 to 1000 nM,,100 to 1000 nM,
C=CCn1c(=O)c2cnc(Nc3ccc(N4CC5CC(C4)N5CC)cc3)nc2n1-c1cccc(C(C)(C)O)n1 [Compound 65],5 to 10 nM,100 to 1000 nM,,100 to 1000 nM,
C=CCn1c(=O)c2cnc(Nc3ccc(N4CC5CC(C4)N5CCO)cc3)nc2n1-c1cccc(C(C)(C)O)n1 [Compound 66],5 to 10 nM,100 to 1000 nM,,100 to 1000 nM,
C=CCn1c(=O)c2cnc(Nc3ccc(N4CC5CC(C4)N5CCOC)cc3)nc2n1-c1cccc(C(C)(C)O)n1 [Compound 67],5 to 10 nM,100 to 1000 nM,,≤ 100 nM,
C=CCn1c(=O)c2cnc(Nc3ccc(N4CC5CC(C4)N5C(C)=O)cc3)nc2n1-c1cccc(C(C)(C)O)n1 [Compound 68],10 to 100 nM,1000 to 2000 nM,,100 to 1000 nM,
C=CCn1c(=O)c2cnc(Nc3ccc(N4CCN(C)CC4)cc3)nc2n1-c1ccc2c(n1)OC(C)(C)CO2 [Compound 74],10 to 100 nM,> 10000 nM,,> 10000 nM,
C=CCn1c(=O)c2cnc(Nc3ccc(N4C[C@@H]5C[C@H]4CN5C)cc3)nc2n1-c1ccc2ccn(CC)c2n1 [Compound 76],10 to 100 nM,100 to 1000 nM,,1000 to 2000 nM,
C=CCn1c(=O)c2cnc(Nc3ccc(C4CCN(C)CC4)cc3)nc2n1-c1ccc2ccn(CC)c2n1 [Compound 77],5 to 10 nM,1000 to 2000 nM,,1000 to 2000 nM,
C=CCn1c(=O)c2cnc(Nc3ccc(N4CC5CC(C4)N5C)c(F)c3)nc2n1-c1cccc(C(C)(C)O)n1 [Compound 78],10 to 100 nM,> 10000 nM,,1000 to 2000 nM,
